Measured values: ChEMBL document CHEMBL5352506, “The Zinc-Binding Group Effect: Lessons from Non-Hydroxamic Acid Vorinostat Analogs” (J Med Chem, 2023)

Experiments:
[1] = target: T1, Polyamine deacetylase HDAC10 (Homo sapiens, UniProt Q969S8); experiment: Inhibition of human recombinant HDAC10 using ArgHisLysLys(Ac) as substrate by fluorescence based analysis
T1 sequence (Q969S8 whole entry): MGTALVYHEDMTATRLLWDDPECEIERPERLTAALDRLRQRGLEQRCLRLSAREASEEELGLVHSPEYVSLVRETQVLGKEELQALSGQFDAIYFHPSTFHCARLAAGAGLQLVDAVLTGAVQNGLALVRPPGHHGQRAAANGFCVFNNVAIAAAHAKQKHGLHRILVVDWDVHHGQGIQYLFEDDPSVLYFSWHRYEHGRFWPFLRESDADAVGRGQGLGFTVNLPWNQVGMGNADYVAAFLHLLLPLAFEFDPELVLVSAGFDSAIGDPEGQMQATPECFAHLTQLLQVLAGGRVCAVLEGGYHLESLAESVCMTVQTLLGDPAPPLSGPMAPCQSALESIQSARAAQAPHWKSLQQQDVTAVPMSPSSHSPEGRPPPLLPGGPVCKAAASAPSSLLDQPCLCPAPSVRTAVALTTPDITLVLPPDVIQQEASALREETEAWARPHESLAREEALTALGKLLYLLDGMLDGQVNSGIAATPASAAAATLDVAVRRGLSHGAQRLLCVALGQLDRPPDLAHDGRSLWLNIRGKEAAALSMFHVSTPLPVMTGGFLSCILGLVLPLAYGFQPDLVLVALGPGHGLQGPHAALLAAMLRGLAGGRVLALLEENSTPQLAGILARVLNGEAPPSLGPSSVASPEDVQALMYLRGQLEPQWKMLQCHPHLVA

Histone deacetylase 4 = Histone deacetylase 4 (Homo sapiens, UniProt P56524); experiment: Inhibition of human recombinant HDAC4 using ArgHisLysLys(Ac) as substrate by fluorescence based analysis
Sequence of Histone deacetylase 4 (P56524 whole entry): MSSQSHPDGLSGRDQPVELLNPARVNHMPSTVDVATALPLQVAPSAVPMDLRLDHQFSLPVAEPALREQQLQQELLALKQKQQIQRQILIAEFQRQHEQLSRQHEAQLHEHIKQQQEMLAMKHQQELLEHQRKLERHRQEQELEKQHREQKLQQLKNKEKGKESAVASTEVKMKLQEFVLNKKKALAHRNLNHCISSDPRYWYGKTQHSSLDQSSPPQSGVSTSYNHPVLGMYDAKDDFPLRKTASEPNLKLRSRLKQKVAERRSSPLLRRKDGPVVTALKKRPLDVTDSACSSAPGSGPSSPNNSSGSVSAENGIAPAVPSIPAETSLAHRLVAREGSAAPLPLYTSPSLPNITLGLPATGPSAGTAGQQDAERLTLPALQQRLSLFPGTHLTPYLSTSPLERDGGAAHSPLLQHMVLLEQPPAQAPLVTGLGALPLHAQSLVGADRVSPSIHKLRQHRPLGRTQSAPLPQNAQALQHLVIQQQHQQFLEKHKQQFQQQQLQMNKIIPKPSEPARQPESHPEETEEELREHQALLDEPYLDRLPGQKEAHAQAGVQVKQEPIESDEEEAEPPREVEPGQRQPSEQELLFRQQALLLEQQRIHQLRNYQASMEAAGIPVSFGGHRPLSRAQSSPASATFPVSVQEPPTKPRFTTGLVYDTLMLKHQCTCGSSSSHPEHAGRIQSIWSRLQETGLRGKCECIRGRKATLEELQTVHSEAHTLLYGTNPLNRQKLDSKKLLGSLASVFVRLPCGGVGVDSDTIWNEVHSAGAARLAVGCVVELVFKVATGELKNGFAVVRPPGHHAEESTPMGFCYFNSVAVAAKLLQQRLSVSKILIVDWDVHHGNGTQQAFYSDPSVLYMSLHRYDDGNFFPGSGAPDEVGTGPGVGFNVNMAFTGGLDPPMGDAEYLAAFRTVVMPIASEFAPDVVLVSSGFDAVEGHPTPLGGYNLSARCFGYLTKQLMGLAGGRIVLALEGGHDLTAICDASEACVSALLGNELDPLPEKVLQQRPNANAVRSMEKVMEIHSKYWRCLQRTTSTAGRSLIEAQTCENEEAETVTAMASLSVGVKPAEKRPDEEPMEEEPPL

Histone deacetylase 8 = target: T2, Histone deacetylase 8 (Homo sapiens, UniProt Q9BY41); experiment: Inhibition of human recombinant HDAC8 using ArgHisLysLys(Ac) as substrate by fluorescence based analysis
T2 sequence (Q9BY41 whole entry): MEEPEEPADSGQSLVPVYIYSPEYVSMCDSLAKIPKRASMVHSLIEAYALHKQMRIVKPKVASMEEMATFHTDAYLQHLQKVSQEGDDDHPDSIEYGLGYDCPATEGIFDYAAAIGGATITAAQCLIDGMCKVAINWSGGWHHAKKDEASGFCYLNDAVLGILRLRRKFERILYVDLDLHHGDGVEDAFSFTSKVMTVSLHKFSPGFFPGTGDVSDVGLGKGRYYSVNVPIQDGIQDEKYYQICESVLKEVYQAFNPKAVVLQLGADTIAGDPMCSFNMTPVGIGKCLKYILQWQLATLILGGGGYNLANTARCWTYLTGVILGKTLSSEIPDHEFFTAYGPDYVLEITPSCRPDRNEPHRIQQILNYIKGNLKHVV

Histone deacetylase 3 = Histone deacetylase 3 (Homo sapiens, UniProt O15379); experiment: Inhibition of human recombinant HDAC3 using ArgHisLysLys(Ac) as substrate by fluorescence based analysis
Sequence of Histone deacetylase 3 (O15379 whole entry): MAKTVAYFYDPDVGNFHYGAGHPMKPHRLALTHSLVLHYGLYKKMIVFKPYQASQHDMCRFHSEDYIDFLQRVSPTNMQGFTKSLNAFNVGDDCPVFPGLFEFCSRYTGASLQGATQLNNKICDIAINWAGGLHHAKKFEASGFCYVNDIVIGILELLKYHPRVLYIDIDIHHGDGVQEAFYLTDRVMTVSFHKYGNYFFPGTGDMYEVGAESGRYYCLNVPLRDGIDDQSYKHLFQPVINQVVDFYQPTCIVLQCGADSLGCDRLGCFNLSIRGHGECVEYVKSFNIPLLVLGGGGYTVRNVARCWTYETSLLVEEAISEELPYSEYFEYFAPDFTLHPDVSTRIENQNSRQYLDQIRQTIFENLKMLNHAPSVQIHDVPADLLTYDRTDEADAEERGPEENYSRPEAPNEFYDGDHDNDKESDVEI

Measured: IC50

Nc1ccccc1N1CC(CCCCCC(=O)Nc2ccccc2)C1=O (stereo unspecified)
> 1000 µM: all assays above

O=C(CCCCCC1CNC1=O)Nc1ccccc1 (stereo unspecified)
> 1000 µM: all assays above

O=C(CCCCC[C@H]1CN(O)C1=O)Nc1ccccc1
> 1000 µM: all assays above

O=C(CCCCC[C@@H]1CN(O)C1=O)Nc1ccccc1
> 1000 µM: all assays above
